Measured values reported in patent US11130769B2 (Prelude Therapeutics Incorporated, priority 2018, dated 2021).

How the values were obtained:
H929 cells = test: Cell viability assay (H929 10 FBS); format: cell-based; conditions: Homo sapiens, NCI-H929, 24 hours, read-out: H929_10FBS IC50
In short: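 H929 cells, 4000/well, in RPMI 1640 with 10% FBS, sodium pyruvate, HEPES and glucose were exposed to compound 24 h at 37 °C. Viability read as luminescence after 30-60 min at RT with CellTiter-Glo or ATPlite 1 Step.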

MCL-1 = MCL-1 (Homo sapiens (Human), UniProt Q07820); test: Cell free Mcl-1:Bim affinity assay (fluorescence polarization competition); format: binding; conditions: 15 nM MCL-1, 5 nM FITC-Bim, 1 hour at room temperature; class symbols; read-out: BIM_Ki
Sequence of MCL-1 (Q07820 whole entry): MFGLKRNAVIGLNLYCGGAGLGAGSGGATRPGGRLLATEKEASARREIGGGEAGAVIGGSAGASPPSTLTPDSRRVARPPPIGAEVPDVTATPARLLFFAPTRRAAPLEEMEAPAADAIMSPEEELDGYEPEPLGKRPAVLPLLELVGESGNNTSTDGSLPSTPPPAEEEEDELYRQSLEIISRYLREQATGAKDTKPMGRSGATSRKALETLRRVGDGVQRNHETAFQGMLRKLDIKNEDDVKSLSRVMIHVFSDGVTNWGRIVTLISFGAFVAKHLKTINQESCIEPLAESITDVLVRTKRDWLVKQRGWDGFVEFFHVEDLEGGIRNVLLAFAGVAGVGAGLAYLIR
In short: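 Compounds competed with FITC-labelled Bim peptide (5 nM) for MCL-1 (15 nM) in HEPES/NaCl buffer with 1% DMSO, 1 h at room temperature. Fluorescence polarization (535 nm emission) gave % inhibition versus DMSO and positive controls; IC50 from 10-point curves, converted to Ki by the Nikolovska-Coleska equation.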

Compound | IC50 (H929 cells) | Ki (MCL-1)
O=C(O[C@H]1/C=C/COC2(CCC2)C(=O)NS(=O)(=O)c2ccc3c(c2)N(C[C@@H]2CC[C@H]21)C[C@@]1(CCCc2cc(Cl)ccc21)CO3)N1CCC1 [Example 232, [(3R,6R,7S,8E,22S)-6′-Chloro-12,12-(1,3-propylene)-13,15,15-trioxo-spiro[11,20-dioxa-15-thia-1,14-diazatetracyclo[14.7.2.03,6.019,24]pentacosa-8,16(25),17,19(24)-tetraene-22,1′-tetralin]-7-yl] N,N-1,3-propylene carbamate] | < 500 nM | < 1 nM
O=C(N[C@H]1CCOC1)O[C@H]1/C=C/COC2(CCC2)C(=O)NS(=O)(=O)c2ccc3c(c2)N(C[C@@H]2CC[C@H]21)C[C@@]1(CCCc2cc(Cl)ccc21)CO3 [Example 237, [(3R,6R,7S,8E,22S)-6′-Chloro-12,12-(1,3-propylene)-13,15,15-trioxo-spiro[11,20-dioxa-15-thia-1,14-diazatetracyclo[14.7.2.03,6.019,24]pentacosa-8,16(25),17,19(24)-tetraene-22,1′-tetralin]-7-yl] N-[(3S)-tetrahydrofuran-3-yl]carbamate] | < 500 nM | < 1 nM
COC1CN(C(=O)O[C@H]2/C=C/CN(C)C3(CCC3)C(=O)NS(=O)(=O)c3ccc4c(c3)N(C[C@@H]3CC[C@H]32)C[C@@]2(CCCc3cc(Cl)ccc32)CO4)C1 [Example 238, [(3R,6R,7S,8E,22S)-6′-Chloro-11-methyl-12,12-(1,3-propylene)-13,15,15-trioxo-spiro[20-oxa-15-thia-1,11,14-triazatetracyclo[14.7.2.03,6.019,24]pentacosa-8,16,18,24-tetraene-22,1′-tetralin]-7-yl] 3-methoxyazetidine-1-carboxylate] | < 500 nM | < 1 nM
CN1C/C=C/[C@H](OC(=O)N[C@@H]2CCOC2)[C@@H]2CC[C@H]2CN2C[C@@]3(CCCc4cc(Cl)ccc43)COc3ccc(cc32)S(=O)(=O)NC(=O)C12CCC2 [Example 243, [(3R,6R,7S,8E,22S)-6′-Chloro-11-methyl-12,12-(1,3-propylene)-13,15,15-trioxo-spiro[20-oxa-15-thia-1,11,14-triazatetracyclo[14.7.2.03,6.019,24]pentacosa-8,16,18,24-tetraene-22,1′-tetralin]-7-yl] N-[(3R)-tetrahydrofuran-3-yl]carbamate] | < 500 nM | < 1 nM
CCOC1CN(C(=O)O[C@H]2/C=C/CN(C)C3(CCC3)C(=O)NS(=O)(=O)c3ccc4c(c3)N(C[C@@H]3CC[C@H]32)C[C@@]2(CCCc3cc(Cl)ccc32)CO4)C1 [Example 244, [(3R,6R,7S,8E,22S)-6′-Chloro-11-methyl-12,12-(1,3-propylene)-13,15,15-trioxo-spiro[20-oxa-15-thia-1,11,14-triazatetracyclo[14.7.2.03,6.019,24]pentacosa-8,16,18,24-tetraene-22,1′-tetralin]-7-yl] 3-ethoxyazetidine-1-carboxylate] | < 500 nM | < 1 nM
COC1CCN(C(=O)O[C@H]2/C=C/CN(C)C3(CCC3)C(=O)NS(=O)(=O)c3ccc4c(c3)N(C[C@@H]3CC[C@H]32)C[C@@]2(CCCc3cc(Cl)ccc32)CO4)CC1 [Example 245, [(3R,6R,7S,8E,22S)-6′-Chloro-11-methyl-12,12-(1,3-propylene)-13,15,15-trioxo-spiro[20-oxa-15-thia-1,11,14-triazatetracyclo[14.7.2.03,6.019,24]pentacosa-8,16,18,24-tetraene-22,1′-tetralin]-7-yl] 4-methoxypiperidine-1-carboxylate] | < 500 nM | < 1 nM
CC1(C)OC/C=C/[C@H](O)[C@@H]2CC[C@H]2CN2C[C@@]3(CCOc4cc(Cl)ccc43)COc3ccc(cc32)S(=O)(=O)NC1=O [Example 246, (3R,6R,7S,8E,22S)-7′-chloro-7-hydroxy-12,12-dimethyl-15,15-dioxo-spiro[11,20-dioxa-15-thia-1,14-diazatetracyclo[14.7.2.03,6.019,24]pentacosa-8,16,18,24-tetraene-22,4′-chromane]-13-one] | > 1000 nM | 1 to 100 nM

Continued, values first:

IC50 (H929 cells) | Ki (MCL-1) | Compound
< 500 nM | < 1 nM | CN(C)CCN(C)C(=O)O[C@H]1/C=C/COC2(CCC2)C(=O)NS(=O)(=O)c2ccc3c(c2)N(C[C@@H]2CC[C@H]21)C[C@@]1(CCCc2cc(Cl)ccc21)CO3 [Example 233, [(3R,6R,7S,8E,22S)-6′-Chloro-12,12-(1,3-propylene)-13,15,15-trioxo-spiro[11,20-dioxa-15-thia-1,14-diazatetracyclo[14.7.2.03,6.019,24]pentacosa-8,16(25),17,19(24)-tetraene-22,1′-tetralin]-7-yl] N-[2-(dimethylamino)ethyl]-N-methyl-carbamate]
< 500 nM | < 1 nM | CN(C(=O)O[C@H]1/C=C/COC2(CCC2)C(=O)NS(=O)(=O)c2ccc3c(c2)N(C[C@@H]2CC[C@H]21)C[C@@]1(CCCc2cc(Cl)ccc21)CO3)[C@@H]1CCOC1 [Example 234, [(3R,6R,7S,8E,22S)-6′-Chloro-12,12-(1,3-propylene)-13,15,15-trioxo-spiro[11,20-dioxa-15-thia-1,14-diazatetracyclo[14.7.2.03,6.019,24]pentacosa-8,16,18,24-tetraene-22,1′-tetralin]-7-yl] N-methyl-N-[(3R)-tetrahydrofuran-3-yl]carbamate]
< 500 nM | < 1 nM | CN(C(=O)O[C@H]1/C=C/COC2(CCC2)C(=O)NS(=O)(=O)c2ccc3c(c2)N(C[C@@H]2CC[C@H]21)C[C@@]1(CCCc2cc(Cl)ccc21)CO3)C1COC1 [Example 235, [(3R,6R,7S,8E,22S)-6′-Chloro-12,12-(1,3-propylene)-13,15,15-trioxo-spiro[11,20-dioxa-15-thia-1,14-diazatetracyclo[14.7.2.03,6.019,24]pentacosa-8,16,18,24-tetraene-22,1′-tetralin]-7-yl] N-methyl-N-(oxetan-3-yl)carbamate]
< 500 nM | < 1 nM | CN(C(=O)O[C@H]1/C=C/COC2(CCC2)C(=O)NS(=O)(=O)c2ccc3c(c2)N(C[C@@H]2CC[C@H]21)C[C@@]1(CCCc2cc(Cl)ccc21)CO3)C1CCOCC1 [Example 236, [(3R,6R,7S,8E,22S)-6′-Chloro-12,12-(1,3-propylene)-13,15,15-trioxo-spiro[11,20-dioxa-15-thia-1,14-diazatetracyclo[14.7.2.03,6.019,24]pentacosa-8,16,18,24-tetraene-22,1′-tetralin]-7-yl] N-methyl-N-tetrahydropyran-4-yl-carbamate]
< 500 nM | < 1 nM | CN(C(=O)O[C@H]1/C=C/CN(C)C2(CCC2)C(=O)NS(=O)(=O)c2ccc3c(c2)N(C[C@@H]2CC[C@H]21)C[C@@]1(CCCc2cc(Cl)ccc21)CO3)C1CCOCC1 [Example 239, [(3R,6R,7S,8E,22S)-6′-Chloro-11-methyl-12,12-(1,3-propylene)-13,15,15-trioxo-spiro[20-oxa-15-thia-1,11,14-triazatetracyclo[14.7.2.03,6.019,24]pentacosa-8,16,18,24-tetraene-22,1′-tetralin]-7-yl] N-methyl-N-tetrahydropyran-4-yl-carbamate]
< 500 nM | < 1 nM | CN(C(=O)O[C@H]1/C=C/CN(C)C2(CCC2)C(=O)NS(=O)(=O)c2ccc3c(c2)N(C[C@@H]2CC[C@H]21)C[C@@]1(CCCc2cc(Cl)ccc21)CO3)C1COC1 [Example 240, [(3R,6R,7S,8E,22S)-6′-Chloro-11-methyl-12,12-(1,3-propylene)-13,15,15-trioxo-spiro[20-oxa-15-thia-1,14-triazatetracyclo[14.7.2.03,6.019,24]pentacosa-8,16,18,24-tetraene-22,1′-tetralin]-7-yl] N-methyl-N-(oxetan-3-yl)carbamate]
< 500 nM | < 1 nM | CN(C(=O)O[C@H]1/C=C/CN(C)C2(CCC2)C(=O)NS(=O)(=O)c2ccc3c(c2)N(C[C@@H]2CC[C@H]21)C[C@@]1(CCCc2cc(Cl)ccc21)CO3)[C@H]1CCOC1 [Example 241, [(3R,6R,7S,8E,22S)-6′-Chloro-11-methyl-12,12-(1,3-propylene)-13,15,15-trioxo-spiro[20-oxa-15-thia-1,11,14-triazatetracyclo[14.7.2.03,6.019,24]pentacosa-8,16,18,24-tetraene-22,1′-tetralin]-7-yl] N-methyl-N-[(3S)-tetrahydrofuran-3-yl]carbamate]
< 500 nM | < 1 nM | CN(C(=O)O[C@H]1/C=C/CN(C)C2(CCC2)C(=O)NS(=O)(=O)c2ccc3c(c2)N(C[C@@H]2CC[C@H]21)C[C@@]1(CCCc2cc(Cl)ccc21)CO3)[C@@H]1CCOC1 [Example 242, [(3R,6R,7S,8E,22S)-6′-Chloro-11-methyl-12,12-(1,3-propylene)-13,15,15-trioxo-spiro[20-oxa-15-thia-1,11,14-triazatetracyclo[14.7.2.03,6.019,24]pentacosa-8,16,18,24-tetraene-22,1′-tetralin]-7-yl] N-methyl-N-[(3R)-tetrahydrofuran-3-yl]carbamate]
< 500 nM | < 1 nM | CN(C)C(=O)O[C@H]1/C=C/COC(C)(C)C(=O)NS(=O)(=O)c2ccc3c(c2)N(C[C@@H]2CC[C@H]21)C[C@@]1(CCOc2cc(Cl)ccc21)CO3 [Example 247, [(3R,6R,7S,8E,22S)-7′-Chloro-12,12-dimethyl-135,5-trioxo-spiro[11,20-dioxa-15-thia-1,14-diazatetracyclo[14.7.2.03,6.019,24]pentacosa-8,16,18,24-tetraene-22,4′-chromane]-7-yl] N,N-dimethylcarbamate]
